The source of these data is BindingDB's records for doi:10.1016/s0960-894x(98)00318-7 (National Taiwan University, 1999).

This test can be described thus: Binding affinity against Opioid receptor delta 1 was determined in brain membrane preparations from male Hartley guinea-pigs.

`CC1Oc2c(O)cccc2C12CCN(C)CC2` (stereo not drawn) [1',2-dimethylspiro[2,3-dihydrobenzo[b]furan-3,4'-(hexahydropyridine)]-7-ol]: the Ki (as a rule, a measure of affinity in units of concentration, obtained from inhibition or displacement) worked out at 2.41 µM. Regarding `CN1CCC2(CC1)COc1c(O)cccc12` [1'-methylspiro[2,3-dihydrobenzo[b]furan-3,4'-(hexahydropyridine)]-7-ol], the Ki was more than 100 µM. The figure for `CCC1Oc2c(O)cccc2C12CCN(C)CC2` (stereo not drawn) [2-ethyl-1'-methylspiro[2,3-dihydrobenzo[b]furan-3,4'-(hexahydropyridine)]-7-ol] is 0.853 µM.
